Key:
[1] = system: rat Cyp1A1 promoter (Cyp1A1-SEAP reporter pCW2) in Hepa-C1C7 cells; test: 3MC induced Cyp1A1-SEAP vector (pCW2) expression in transfected cells, SEAP activity in medium; type: cell-based; settings: 48 hours after induction
Procedure: The sequence coding for 55.5 kD secreted alkaline phosphatase (SEAP), a truncated form of placental alkaline phosphatase enzyme that lacks the GPI anchor, was excised from pSEAP2-Basic (Clonetech) by first converting a BsmI restriction site by removing 3′-overhanging sequences and addition of BglII linker, then excision with BglII.
Hepa-C1C7 cells (cultured in DMEM supplemented with 10% FCS, 2 mM 1-glutamine, at 5% CO2) were transfected with pCW2 either transiently or stably (in conjunction with pSVNeo) using the calcium phosphate co-precipitation method. Briefly, 5 μg of plasmid (+1 μg pSVNeo for stable transfections) was mixed with calcium chloride and HEPES buffered saline to form a calcium phosphate-DNA precipitate which was left incubating with the cells for 5 hours. The medium was then replaced with fresh growth medium or with selection medium (growth medium supplemented with 400 μg/ml G418, for stable transfections). Transiently transfected cells were plated into 6 well plates and were incubated with increasing doses of 3MC dissolved in culture medium. For stable transfections, once individual colonies could be identified on the plates the colonies were pooled and incubated with 2 μg/ml 3MC. Forty eight hours after induction with 3MC the medium was assayed for SEAP activity.
SEAP activity was determined using the “SEAP reporter Gene Assay, chemiluminescent” (Roche). […]

[2] = system: Cyp1A1-SEAP transgene (rat Cyp1A1 promoter); test: 3MC induced Cyp1A1-SEAP vector expression in transgenic mice, SEAP activity in urine and blood
Procedure: 3MC was administered to female and male mice (of at least 8 weeks of age) as a suspension in Mazola brand corn oil by i.p. injection. Test animals were either transgenic or non-transgenic age-matched animals with the same genotype were i.p. injected once every 24 hours with either 40 mg/kg or 0.4 mg/kg body weight 3-methylcholanthrene (3MC) in maize oil for three consecutive injections. Control animals were injected with an equal volume of carrier corn oil only. All animals were killed by cervical dislocation 24 hours following the final dose.
Samples of the liver and kidney were removed, washed once in phosphate buffered saline and then homogenised in HB buffer (140 mM NaCl, 50 mM Tris-HCl pH 7.5, 1 mM EDTA, 1% w/v Triton X-100) using a dounce glass homogeniser until a smooth solution was formed. Insoluble proteins were removed by centrifugation at 13000 rpm for 5 minutes and the cleared supernatant was assayed for protein content using the Pierce protein determination kit. For each tissue a final concentration of 0.8 mg/ml was used in the SEAP assay.
Urine and blood samples were centrifuged at 5000 rpm for 5 minutes to remove any solid waste (from the urine) or coagulated cells (from the blood) and were assayed for SEAP activity immediately. Urine was used undiluted in the assay, whereas blood samples were diluted 1:100 and 1:500 with distilled water prior to the SEAP assay. SEAP activity was assayed as described in example 2.

[3] = system: SFN-hCG(myc) reporter transgene (stratifin promoter) in PC3 xenograft tumours; test: Induced SFN-hCG(myc) transgene expression from xenografted PC3 cell line in vivo, urinary hCG(myc) by sandwich ELISA; set-up: species or system nude mice; settings: single i.p. camptothecin 15 mg/kg; urine 24 hours after administration; versus vehicle only; FIG. 7
Procedure: The SFN-hCG(myc)-Amp reporter construct generated as described under example 5, was transfected into PC3 cells on 6-well tissue culture plates using FuGene reagent (Roche, Lewes, East Sussex). Construct DNA (equivalent to 1 μg/well) was added to FuGene reagent (3 μl/well) and made up to 100 μl/well with serum free medium. The medium in which the cells were growing was aspirated off and replaced with 100 μl of the above mixture per well. After 24 hours the cells were trypsinised and transferred to 10 cm tissue culture dishes (one well of a six well plate per 10 cm dish). The cells were allowed to grow on these dishes for 7 days prior to selection. […]
The study consisted of 4 groups in total, each containing 4 animals. […] Tumour growth was measured twice-weekly following cell implantation until tumours reached 2-5 mm in diameter. Tumour volume (V) was calculated using the formula: V= 4/3π((d1+d2)/4)^3, where d=mean diameter (n=2)
Treatment began 5 weeks after tumour implantation. […] Quantities of bound HRP were then determined by reaction with tetramethylbenzidine (TMB) and absorbance measurement at 450 nm. No hCG(myc) was detected in the urine of mice carrying xenograft tumours resulting from injection of wild-type PC3 cells. However, hCG(myc) was detected in the urine of mice carrying xenograft tumours resulting from injection of PC3 cells transfected with the SFN-hCG(myc) reporter construct.

| Compound | SEAP activity in medium (3MC induction of pCW2) ([1]; pCW2 stably-transfected into Hepa1 cells, 2 μg/ml 3MC, FIG. 3) | SEAP activity in medium (3MC induction of pCW2) ([1]; pCW2 transiently-transfected into Hepa1 cells, increasing doses of 3MC, FIG. 2) | SEAP in urine of CYS31 transgenic mice ([2]; 0.4 mg/kg 3MC i.p., FIG. 6) | Cyp1a1-SEAP activity detected in urine and blood ([2]; 40 mg/kg 3MC i.p. once every 24 hours, three injections, 3 out of 4 founder transgenic mice analysed (CYS48, CYS50, CYS31, CYS74), FIG. 4) | SEAP activity detected in the urine of transgenic mice ([2]; 3MC i.p., FIG. 5) | urinary hCG(myc) concentration (absorbance at 450 nm) [3] |
| --- | --- | --- | --- | --- | --- | --- |
| Cc1ccc2cc3c(ccc4ccccc43)c3c2c1CC3 [3MC, 3-methylcholanthrene] | induction | induction | appearance of SEAP in urine | induction | induced SEAP activity | – |
| CC[C@@]1(O)C(=O)OCc2c1cc1n(c2=O)Cc2cc3ccccc3nc2-1 [camptothecin] | – | – | – | – | – | increased urinary hCG(myc) |
